Results reported in US10265329B2, “Altering steroid metabolism for treatment of steroid-dependent disease” (THE CLEVELAND CLINIC FOUNDATION, priority 2015, dated 2019).
One block for each compound: values may come before it.

What was measured:
CYP17A1 = target: T1, CYP17A1 (Homo sapiens, UniProt P05093); assay: Conversion of [3H]-pregnenolone to DHEA in 293 cells expressing CYP17A1; type: cell-based; conditions: 1 nM drug; 3 h incubation; vehicle 70.1%
T1 construct: expressed in transfected cells
T1 sequence (P05093 1-508): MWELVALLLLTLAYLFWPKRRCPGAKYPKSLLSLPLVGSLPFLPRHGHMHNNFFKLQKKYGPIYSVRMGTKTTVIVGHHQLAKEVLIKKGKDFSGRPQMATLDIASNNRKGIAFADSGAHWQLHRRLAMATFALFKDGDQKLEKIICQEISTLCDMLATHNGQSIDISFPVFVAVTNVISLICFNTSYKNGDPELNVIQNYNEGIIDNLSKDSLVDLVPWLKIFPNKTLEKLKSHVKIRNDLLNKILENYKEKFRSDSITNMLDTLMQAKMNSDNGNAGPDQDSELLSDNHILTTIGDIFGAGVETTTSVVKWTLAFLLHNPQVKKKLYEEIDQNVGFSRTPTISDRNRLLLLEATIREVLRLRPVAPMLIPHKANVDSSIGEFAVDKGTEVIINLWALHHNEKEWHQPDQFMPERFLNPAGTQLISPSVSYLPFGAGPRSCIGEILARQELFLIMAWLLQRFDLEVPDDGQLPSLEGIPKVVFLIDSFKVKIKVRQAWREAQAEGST
Text: LNCaP and VCaP cells were purchased from the American Type Culture Collection (Manassas, Va.) and maintained in RPMI-1640 with 10% FBS. LAPC4 cells were kindly provided by Dr. Charles Sawyers (Memorial Sloan Kettering Cancer Center, New York, N.Y.) and grown in Iscove's Modified Dulbecco's Medium with 10% FBS. C4-2 cells were kindly provided by Dr. Leland Chung (Cedars-Sinai Medical Center, Los Angeles, Calif.) and maintained in RPMI-1640 with 10% FBS. All experiments done with LNCaP and VCaP were done in plates coated with poly-DL-ornithine (Sigma-Aldrich, St. Louis, Mo.). A 293 cell line stably expressing human CYP17A1 was generated by transfection with plasmid pcDNA3-CYP17 (a generous gift of Dr. Walter Miller, University of California, San Francisco) and selection with G418. Cell lines was authenticated by DDC Medical (Fairfield, Ohio) and determined to be […] mycoplasma free with primers.
Cell Line Metabolism: Cells were seeded and incubated in 12-well plates with 0.2 million cells/well for ˜24 h and then incubated with a mixture of radioactive ([^3H]-labeled) and non-radioactive androgens (final concentration, 100 nM; ˜1,000,000 cpm/well; PerkinElmer, Waltham, Mass.) at 37° C. Aliquots of medium were collected at the indicated times. Collected medium was treated with 1,000 units of β-glucuronidase (Helix pomatia; Sigma-Aldrich) at 65° C. for 2 h, extracted with 860 μL ethyl acetate:isooctane (1:1), and concentrated under nitrogen gas. Xenograft Metabolism: 10^7 LNCaP or VCaP cells were injected subcutaneously with Matrigel into surgically orchiectomized NSG mice that were implanted with 5 mg 90-day sustained-release DHEA pellets (Innovative Research of American, Sarasota, Fla.). Xenografts were harvested when they reached 1000 mm^3, minced, and cultured in DMEM with 10% FBS at 37° C. with mixture of radioactive ([^3H]-labeled) and non-radioactive androgens, or Abi, when they reached 1000 mm^3. Each xenograft was analyzed in triplicate in at least three independent experiments. Aliquots of medium were collected at the indicated times. […]
Dried samples were reconstituted in 50% methanol and injected into the HPLC. […] Alternatively, dried samples were applied to plastic-backed silica gel plates and separated by thin-layer chromatography (TLC) using a mobile phase of 3:1 chloroform:ethyl acetate, followed by exposure of the plates to a phosphorimager screen and quantitated with a Storm model 860 phosphorimager (Applied Biosystems, Foster City, Calif.). […]
Cell lines, drugs and constructs. […] Cell lines were authenticated by DDC Medical (Fairfield, Ohio) and determined to be mycoplasma free with primers. […]

[1] = patients; wide interpatient variability; cited from earlier work
[2] = Phase II clinical trial NCT01393730: serum Abi metabolites before and after dutasteride; type: in vivo, human
Experimental: Twelve patients with CRPC undergoing treatment with Abi acetate at Cleveland Clinic were consented under an Institutional Review Board—approved protocol (Case 7813). Blood was collected using Vacutainer Plus serum blood collection tubes (#BD367814, Becton Dickenson, Franklin Lakes, N.J.), between 1 and 16 hours after the 1000 mg daily dose of Abi acetate was administered, and allowed to clot. Tubes were centrifuged at 2500 RPM or 1430×g for 10 minutes. Serum aliquots were frozen at −80° C. until processing. To study the effect of dutasteride on Abi metabolism, serum samples were collected from patients treated on a phase II clinical trial at Dana-Farber Cancer Institute (NCT01393730). Each patient received Abi acetate (1,000 mg daily) plus prednisone (5 mg daily) for 2 cycles (8 weeks) and then additional treatment with dutasteride ([…]) was initiated. Samples were collected on treatment with Abi alone and after addition of dutasteride (start of cycles 3, 4 and 7). Seventeen patients treated at this institution on this clinical trial had blood available from all 3 time points. One patient had Abi concentrations that were under the limit of detection and was later determine to have stopped treatment because of adverse effects and was therefore not included in the analysis. Drug metabolites and internal standard (d4-abiraterone, Toronto Research Chemicals Inc, Ontario Canada) were extracted from 100 μL of patient serum with methyl tert-butyl ether (Sigma Aldrich, St. Louis, Mo.), evaporated under a stream of nitrogen gas and reconstituted in methanol:water (50:50) prior to mass spectrometry analysis. Standard curves were generated using human serum spiked with known concentrations of each metabolite to enable determination of unknown concentrations in patient samples
Samples were analyzed on a ultra high-performance liquid chromatography station (Shimadzu, Kyoto, Japan) with a DGU-20A3R degasser, 2 LC-30AD pumps, a SIL-30AC autosampler, a CTO-10A column oven and a CBM-20A system controller in tandem with a QTRAP 5500 mass spectrometer (AB Sciex, Framingham, Mass.). Drug metabolites were ionized using electrospray ionization in positive ion mode. Multiple reaction monitoring was used to follow mass transitions for Abi, IS, and the metabolites (Table 1). Due to the similarity in structure and mass transitions for the metabolites it was necessary to separate them with chromatography. Separation of drug metabolites was achieved using a mobile phase consisting of LC-MS grade (Fisher) methanol: acetonitrile: water:formic acid (39:26:34:1) at a flow rate of 0.2 ml/min., and C18 analytical column; Zorbax Eclipse plus 150×2.1 mm, 3.5 μm (Agilent, Santa Clara, Calif.).

SRD5A1 = target: T2, SRD5A1 (Homo sapiens, UniProt P18405); conditions: LAPC4 cells
T2 sequence (P18405 1-259): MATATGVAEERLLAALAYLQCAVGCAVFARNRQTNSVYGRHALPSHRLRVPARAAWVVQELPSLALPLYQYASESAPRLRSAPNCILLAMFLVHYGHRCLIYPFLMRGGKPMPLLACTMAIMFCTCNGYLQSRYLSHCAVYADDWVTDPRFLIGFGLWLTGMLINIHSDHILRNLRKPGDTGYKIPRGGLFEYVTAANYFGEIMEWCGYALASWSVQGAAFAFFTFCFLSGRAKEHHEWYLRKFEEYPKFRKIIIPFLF
Experimental: Cell Line Metabolism: 0.2 million/ml cells were seeded and incubated in 12-well plates for ˜24 h before incubation with the indicated drugs or a mixture of [^3H]-labeled (˜1,000,000 cpm/well; PerkinElmer, Waltham, Mass.) and non-radioactive androgens (final concentration, 100 nM) at 37° C. Collected medium was treated with β-glucuronidase (Helix pomatia; Sigma-Aldrich), extracted with ethyl acetate:isooctane (1:1), and concentrated under nitrogen gas as described.
Dried samples were reconstituted in 50% methanol and separated on Kinetex 100×2.1 mm, 2.6 μm particle size C18 reverse-phase column (Phenomenex, Torrance, Calif.) using a methanol/water gradient at 30° C. The column effluent was analyzed using a 254 nm UV-visible detector or β-RAM model 3 in-line radioactivity detector (IN/US Systems, Inc.) using Liquiscint scintillation cocktail (National Diagnostics, Atlanta, Ga.). All HPLC studies were conducted in triplicate and repeated at least 3 times in independent experiments. Results are shown as mean±SD.

SRD5A = target: T3, SRD5A (Homo sapiens, UniProt P18405); assay: Conversion of [3H]-AD to 5α-reduced androgens in LAPC4 cells; type: cell-based; conditions: up to 100 μM; LAPC4 cells
T3 construct: endogenous in cells; host or cells: LAPC4
T3 sequence (P18405 1-259): T2 sequence (P18405 1-259)
Experimental: Cell Line Metabolism: Cells were seeded and incubated in 12-well plates with 0.2 million cells/well for ˜24 h and then incubated with a mixture of radioactive ([^3H]-labeled) and non-radioactive androgens (final concentration, 100 nM; ˜1,000,000 cpm/well; PerkinElmer, Waltham, Mass.) at 37° C. Aliquots of medium were collected at the indicated times. Collected medium was treated with 1,000 units of β-glucuronidase (Helix pomatia; Sigma-Aldrich) at 65° C. for 2 h, extracted with 860 μL ethyl acetate:isooctane (1:1), and concentrated under nitrogen gas. Xenograft Metabolism: 10^7 LNCaP or VCaP cells were injected subcutaneously with Matrigel into surgically orchiectomized NSG mice that were implanted with 5 mg 90-day sustained-release DHEA pellets (Innovative Research of American, Sarasota, Fla.). Xenografts were harvested when they reached 1000 mm^3, minced, and cultured in DMEM with 10% FBS at 37° C. with mixture of radioactive ([^3H]-labeled) and non-radioactive androgens, or Abi, when they reached 1000 mm^3. Each xenograft was analyzed in triplicate in at least three independent experiments. Aliquots of medium were collected at the indicated times. Collected medium was treated with 1,000 units of β-glucuronidase at 65° C. for 2 h, extracted with 860 μL ethyl acetate:isooctane (1:1), and concentrated under nitrogen gas.
Dried samples were reconstituted in 50% methanol and injected into the HPLC. Steroids and drug metabolites were separated on Kinetex 100×2.1 mm, 2.6 μm particle size C18 reverse-phase column (Phenomenex, Torrance, Calif.) using a methanol/water gradient at 30° C. […] Alternatively, dried samples were applied to plastic-backed silica gel plates and separated by thin-layer chromatography (TLC) using a mobile phase of 3:1 chloroform:ethyl acetate, followed by exposure of the plates to a phosphorimager screen and quantitated with a Storm model 860 phosphorimager (Applied Biosystems, Foster City, Calif.). […] Results are shown as mean±SD.
Collected medium was treated with β-glucuronidase (Helix pomatia; Sigma-Aldrich), extracted with ethyl acetate:isooctane (1:1), and concentrated under nitrogen gas as described. Li et al., 523, 347-351 (2015).
Dried samples were reconstituted in 50% methanol and separated on Kinetex 100×2.1 mm, 2.6 μm particle size C18 reverse-phase column (Phenomenex, Torrance, Calif.) using a methanol/water gradient at 30° C. […] Results are shown as mean±SD.

LNCaP cells = assay: Cell proliferation assay, DHT-stimulated growth; type: cell-based, human; conditions: DHT 0.5 nM, 2, 4 and 6 days
Experimental: LNCaP cells (0.1 million/mL) were seeded in 96-well plates and cultured in phenol red free RPMI-1640 mediums plus 10% charcoal stripped FBS with androgens and/or drugs. Medium was changed every other day. After 2, 4 or 6 days, cells were collected and lysed after treatment. Growth was then determined based on DNA content as detected by Hoechst stain and a Wallac Victor2 1420 Multilabel counter (Perkin Elmer). Two-tailed student's t-test was used to determine significance.

Structure (SMILES): C[C@]12C=CC(=O)N[C@@H]1CC[C@@H]1[C@@H]2CC[C@]2(C)[C@@H](C(=O)Nc3cc(C(F)(F)F)ccc3C(F)(F)F)CC[C@@H]12 [dutasteride]
block of conversion of D4A to 5α-Abi and 3α-OH-5α-Abi (SRD5A1): blocks conversion

Structure (SMILES): C[C@]12CC[C@H](O)C[C@@H]1CC[C@@H]1[C@@H]2CC[C@]2(C)C(c3cccnc3)=CC[C@@H]12 [Compound 3β-OH-5α-Abi, 17-(3-pyridyl)-5α-androsta-16-ene-3β-ol]
decline in mean serum concentration after the addition of dutasteride ([2]; cycle 3 vs. cycle 4): 73%

Structure (SMILES): CNC(=O)c1ccc(N2C(=S)N(c3ccc(C#N)c(C(F)(F)F)c3)C(=O)C2(C)C)cc1F [enzalutamide, reference compound]
effect on conversion from AD to 5α-reduced androgens (SRD5A): no detectable effect
effect on DHT-stimulated cell growth (LNCaP cells): more potent than Abi

Now from value to compound, other results behind:

% conversion to DHEA (CYP17A1): 2.6%
mean serum concentration, cycle 3 ([2]; Abi acetate 1000 mg daily plus prednisone alone, 16 patients): 0.1912 µM
mean serum concentration, cycle 4 ([2]; after addition of dutasteride 3.5 mg once daily, 16 patients): 0.3724 µM
Structure (SMILES): C[C@]12CC[C@H](O)CC1=CC[C@@H]1[C@@H]2CC[C@]2(C)C(c3cccnc3)=CC[C@@H]12 [Abi, Abiraterone, reference compound]
Cmax [1]: ~1 µM

block of conversion of D4A to 5α-Abi and 3α-OH-5α-Abi (SRD5A1): blocks conversion
Structure (SMILES): CN1C(=O)CC[C@@H]2c3ccc(Cl)cc3CC[C@H]21 [LY191704]
